This is an account of results in patent US9267122B2, “Modulation of phospholipase D for the treatment of neurodegenerative disorders” (THE TRUSTEES OF COLUMBIA UNIVERSITY IN THE CITY OF NEW YORK, priority 2009, dated 2016).

SMILES strings stand for the structures. Entries after “also recorded” stand apart in the source; their conditions may differ.

The subject of assay [1] is N2a cells expressing swAPP. Put plainly: Aβ secretion by N2a cells expressing swAPP (ELISA). It counts as cell-based. The procedure:
N2a cells expressing swAPP after reaching confluence, were replaced with new media and treated either with vehicle (black) or FIPI (gray) for 6 hours. The media was collected and both Aβ40 (A) and Aβ42 (B) were measured by ELISA. n=6.
For orientation: In an ELISA, binding on a coated surface is turned into a signal by an enzyme label.

The next assay concerns the target T1, PLD1 (Homo sapiens, UniProt Q13393).
T1 sequence (Q13393 1-1074): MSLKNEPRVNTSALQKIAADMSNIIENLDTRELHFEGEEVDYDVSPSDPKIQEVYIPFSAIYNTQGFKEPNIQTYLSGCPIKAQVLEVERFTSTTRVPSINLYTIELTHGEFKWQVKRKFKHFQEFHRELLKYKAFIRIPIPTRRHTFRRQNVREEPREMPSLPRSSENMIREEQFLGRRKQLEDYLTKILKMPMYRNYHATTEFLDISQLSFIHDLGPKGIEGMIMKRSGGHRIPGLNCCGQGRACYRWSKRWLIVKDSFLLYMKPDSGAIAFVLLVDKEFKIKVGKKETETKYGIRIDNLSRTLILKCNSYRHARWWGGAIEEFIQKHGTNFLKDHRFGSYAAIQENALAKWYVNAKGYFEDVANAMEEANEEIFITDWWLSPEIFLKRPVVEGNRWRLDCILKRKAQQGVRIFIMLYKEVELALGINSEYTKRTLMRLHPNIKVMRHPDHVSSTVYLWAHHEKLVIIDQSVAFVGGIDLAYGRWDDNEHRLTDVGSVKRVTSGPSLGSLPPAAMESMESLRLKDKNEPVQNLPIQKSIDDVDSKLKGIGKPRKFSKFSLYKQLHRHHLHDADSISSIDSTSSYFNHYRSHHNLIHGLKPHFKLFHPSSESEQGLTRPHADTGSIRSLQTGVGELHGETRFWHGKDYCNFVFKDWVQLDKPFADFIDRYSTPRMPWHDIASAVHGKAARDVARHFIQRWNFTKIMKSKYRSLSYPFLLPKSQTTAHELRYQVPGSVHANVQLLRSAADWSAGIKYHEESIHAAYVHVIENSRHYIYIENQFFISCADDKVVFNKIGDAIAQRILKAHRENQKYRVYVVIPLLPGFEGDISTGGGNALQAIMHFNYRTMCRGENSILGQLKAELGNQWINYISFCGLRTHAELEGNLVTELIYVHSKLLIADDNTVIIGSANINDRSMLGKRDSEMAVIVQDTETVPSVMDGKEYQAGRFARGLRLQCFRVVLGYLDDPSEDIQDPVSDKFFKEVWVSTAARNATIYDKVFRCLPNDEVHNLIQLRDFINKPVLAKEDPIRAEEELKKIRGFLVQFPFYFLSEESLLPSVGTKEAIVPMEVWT
The following applies: PLD1 versus PLD2; cited from earlier work.

The test system of a further assay is primary cortical neurons. The assay can be described thus: Rescue of oAβ42-induced decrease in PIP2 levels in primary cortical neuronal cultures. In kind it is cell-based, mice. The following applies: 750 nM FIPI pretreatment for 1 hour, then 200 nM oAβ42 for 2 hours; n=3.
The next assay has as its system Calu-1. The following applies: cited from earlier work.
Another assay concerns 293-PLD2. As to conditions: cited from earlier work.

For `O=C(NCCN1CCC(n2c(=O)[nH]c3ccccc32)CC1)c1cc2cc(F)ccc2[nH]1` [FIPI, 5-Fluoro-2-indolyl des-chlorohalopemide], the “secreted Aβ42” value in assay [1] (N2A cells expressing swAPP treated with FIPI, 6 hours, ELISA of media) was “secrete lower amounts of Aβ42”. In assay [1] (N2a swAPP cells, FIPI versus vehicle for 6 hours, ELISA, n=6), the “production of Aβ (Aβ40 and Aβ42)” value is “decrease production of Aβ”. Further, the PLD isoform selectivity entry on PLD1 was “blocks both PLD1 and PLD2”. In addition, the “PIP2 levels after oAβ42” value in the assay on primary cortical neurons is on record as “partially rescues oAβ42 induced decrease in PIP2 levels; also recorded: partially rescue PIP2 deficiency”.
The term IC50 denotes the concentration needed to halve the response being measured. As to `O=C(NCCN1CCC2(CC1)C(=O)NCN2c1ccccc1)c1cnc2ccccc2c1` [compound 9b, N-(2-(4-oxo-1-phenyl-1,3,8-triazaspiro[4,5]decan-8-yl)ethyl)quinoline-3-carboxamide], the figures for the IC50 with Calu-1 and in the assay with 293-PLD2 were 1900 nM and 90 nM, respectively.
In the case of `C[C@@H](CN1CCC(n2c(=O)[nH]c3cc(Br)ccc32)CC1)NC(=O)[C@@H]1C[C@H]1c1ccccc1` [compound 13r, (1R,2R)—N—((S)-1-(4-(5-bromo-2-oxo-2,3-dihydro-1H-benzo[d]imidazol-1-yl)piperidin-1-yl)propan-2-yl)-2-phenylcyclopropanecarboxamide], in the assay on Calu-1, the IC50 is 3.7 nM.
